Data from PMC11855827, “High-Throughput Screening of Five Compound Libraries for Anthelmintic Activity and Toxicity Leads to the Discovery of Two Flavonoid Compounds” (International Journal of Molecular Sciences, 2025).
Counter-ions that a name gives are not always drawn. Where a SMILES comes first, the peptide text is derived from it.

System: C. elegans
Details: Table S2, C. elegans SS assay, 110 μM, averages of 4 data points

Row | Molecule | Percentage of motility inhibition 0 h [%] | Percentage of motility inhibition 24 h [%]
1 | C=C1[C@H](OC(=O)c2ccccc2)C[C@H]2[C@@H](/C=C(\C)C(=O)[C@@]3(OC(C)=O)C[C@H](C)[C@H](OC(=O)c4ccccc4)[C@@H]3[C@H]1OC(C)=O)C2(C)C [Euphorbia Factor L2] | 27 | 21
2 | CS(=O)(=O)O.C[C@H]1NCc2cc(-c3ccc4c(=O)c(C(=O)O)cn(C5CC5)c4c3OC(F)F)ccc21.O [Garenoxacin (Mesylate hydrate)] | 61 | 25
3 | (‐)‐Epicatechin gallate | 5 | 8
4 | CCCCC1OC(=O)c2ccccc21 (stereo not shown) [Butylphthalide] | 0 | 18
5 | O=c1[nH]c2ccccc2c(-c2cccc(O)c2)c1O [Viridicatol] | 0 | 0
6 | CC(C)CCC[C@@H](C)[C@H]1CC[C@H]2[C@@H]3C(=O)C=C4C[C@@H](O)CC[C@]4(C)[C@H]3CC[C@]12C [7-Ketocholesterol] | 1 | 27
7 | C=C1CC[C@@]2(C)[C@H]([C@@H]1C)[C@H]1CC[C@@H]3[C@@]4(C)CC[C@H](O)C(C)(C)[C@@H]4CC[C@@]3(C)[C@]1(C)C[C@@H]2O [Arnidiol] | 12 | 57
8 | COc1c(/C=C/C(=O)c2ccc(O)cc2)ccc(O)c1CC=C(C)C [Licochal cone C] | 0 | 8
9 | COC[C@]12CN(C)C3[C@@H]4[C@H](OC)[C@H]1[C@@]3([C@@H](OC)C[C@H]2O)[C@@H]1C[C@@]2(O)[C@H](OC(=O)c3ccccc3)[C@@H]1[C@]4(O)[C@@H](O)[C@@H]2OC [Benzoylmesaconine] | 1 | 0
10 | COc1cc2c(cc1OC)-c1c(C)c3ccc(OC)c(OC)c3c[n+]1CC2.[OH-] [Dehydrocorydaline (hydroxyl)] | 2 | 0
11 | Oc1cc(O)c2c(c1)O[C@@]1(c3ccc(O)c(O)c3)Oc3cc(O)c4c(c3[C@@H]2[C@H]1O)O[C@H](c1ccc(O)c(O)c1)[C@H](O)[C@H]4c1c(O)cc(O)c2c1O[C@H](c1ccc(O)c(O)c1)[C@H](O)C2 [Cinnamtannin B‐1] | 0 | 4
12 | NC(=O)c1ccc[n+]([C@@H]2O[C@H](CO)[C@@H](O)[C@H]2O)c1.[Cl-] [Nicotinamide riboside (chloride)] | 15 | 0
13 | Astragaloside I | 13 | 23
14 | C[C@H]1O[C@@H](O[C@H]2CC[C@@]3(C)[C@@H](CC[C@]4(C)[C@@H]3C=CC3=C5CC(C)(C)CC[C@]5(CO)[C@H](O)C[C@]34C)[C@]2(C)CO)[C@H](O)[C@@H](O[C@@H]2O[C@H](CO)[C@@H](O)[C@H](O)[C@H]2O)[C@H]1O [Saikosaponin B2] | 19 | 11
15 | Madecassoside | 12 | 1
16 | O=C(O)[C@H]1O[C@@H](Oc2cc(-c3cc(=O)c4c(O)cc(O)cc4o3)ccc2O)[C@H](O)[C@@H](O)[C@@H]1O [Luteolin‐3‐O‐beta‐D‐glucuronide] | 0 | 26
17 | O=C(O)[C@H]1O[C@@H](Oc2c(-c3ccc(O)cc3)oc3cc(O)cc(O)c3c2=O)[C@H](O)[C@@H](O)[C@@H]1O [Kaempferol 3‐O‐β‐D‐glucuronide] | 5 | 0
18 | C[C@@]12C[C@H](c3ccoc3)O[C@@]13C[C@H](OC3=O)[C@H]1[C@H]2C[C@@H]2C[C@H]1C(=O)O2 [Diosbulbin B] | 0 | 31
19 | C=C(CCC=C(C)C)[C@@H]1CC=C(C)CC1 [β-Bisabolene] | 8 | 57
20 | COc1ccc(OCc2ccc(COc3c(Cl)cccc3Cl)cc2)c(Cl)c1 [Pocapavir] | 29 | 18
21 | COc1cc(/C=C/C(=O)O)ccc1O [Ferulic acid] | 58 | 8
22 | COc1cc(NC(C)CCCN)c2ncccc2c1.O=P(O)(O)O.O=P(O)(O)O (stereo not shown) [Primaquine (Diphosphate)] | 37 | 0
23 | CC(C)(O)CCc1c(O)cc(O)c2c(=O)c(O)c(-c3ccc(O)cc3)oc12 [Noricaritin] | 42 | 5
24 | O=C1CCC[C@@H]2[C@H]3CCCN4CCC[C@@H](CN12)[C@H]34 [Allomatrine] | 0 | 0

Row | Molecule | Percentage of motility inhibition 0 h [%] | Percentage of motility inhibition 24 h [%]
25 | (±)‐Naringenin | 0 | 18
26 | C=CC1=C(C)c2cc3[n-]c(cc4[n-]c(cc5nc(cc1n2)C(C)=C5C=C)c(C)c4CCC(=O)O)c(CCC(=O)O)c3C.[Fe+2] [Ferroheme] | 0 | 0
27 | COCc1c(CO)cnc(C)c1O [4'‐O‐Methylpyridoxine] | 26 | 1
28 | N=C(NCCCCCCNC(=N)NC(=N)Nc1ccc(Cl)cc1)NC(=N)Nc1ccc(Cl)cc1.O=C(O)[C@H](O)[C@@H](O)[C@H](O)[C@H](O)CO.O=C(O)[C@H](O)[C@@H](O)[C@H](O)[C@H](O)CO [Chlorhexidine (digluconate)] | 39 | 46
29 | Cc1c(C)c2c(c(C)c1O)CC[C@@](C)(CCC[C@H](C)CCC[C@H](C)CCCC(C)C)O2 [α-Vitamin E] | 53 | 11
30 | C[C@H]1O[C@@H](O[C@@H]2CC[C@@]3(C)[C@@H](CC[C@]4(C)[C@@H]3C=C[C@]35OC[C@@]6(CCC(C)(C)C[C@H]63)[C@@H](O)C[C@]54C)[C@@]2(C)CO)[C@H](O)[C@@H](O)[C@H]1O (stereo in doubt) [Prosaikogenin G] | 2 | 34
31 | O=c1c(O[C@@H]2OC[C@H](O)[C@H](O)[C@H]2O)c(-c2ccc(O)c(O)c2)oc2cc(O)cc(O)c12 [Guaijaverin] | 0 | 25
32 | CN1CCC=C(C(=O)O)C1 [Arecaidine] | 16 | 0
33 | CC(C)=CCC[C@](C)(O[C@@H]1O[C@H](CO[C@@H]2O[C@H](CO)[C@@H](O)[C@H](O)[C@H]2O)[C@@H](O)[C@H](O)[C@H]1O)[C@H]1CC[C@]2(C)[C@@H]1[C@H](O)C[C@@H]1[C@@]3(C)CC[C@H](O[C@@H]4O[C@H](CO)[C@@H](O)[C@H](O)[C@H]4O[C@@H]4O[C@H](CO)[C@@H](O)[C@H](O)[C@H]4O[C@@H]4OC[C@@H](O)[C@H](O)[C@H]4O)C(C)(C)[C@@H]3CC[C@]12C [Notoginsenoside Fa] | 7 | 33
34 | CCc1c2c(nc3ccc(OC(=O)N4CCC(N5CCCCC5)CC4)cc13)-c1cc3c(c(=O)n1C2)COC(=O)[C@]3(O)CC.Cl [Irinotecan (hydrochloride)] | 0 | 11
35 | Oc1cccnc1 [3‐Hydroxypyr idine] | 18 | 19
36 | COc1cc(-c2cc(=O)c3c(O)c(OC)c(O)cc3o2)ccc1O [Jaceosidin] | 0 | 5
37 | (+)‐Sparteine (sulfate pentahydrate) | 0 | 0
38 | CC1(C)CCC[C@]2(C)[C@@H]1CC[C@@]13C[C@H](CC[C@H]12)[C@@](O)(CO)C3 [Kauran-16,17-diol] | 0 | 22
39 | C=CC1=C(C)/C(=C/C2=NC(=C\c3[nH]c(/C=C4\NC(=O)C(C)=C4C=C)c(C)c3CCC(=O)O)/C(CCC(=O)O)=C2C)NC1=O [Biliverdin (hydrochloride)] | 0 | 1
40 | O=C(O)C1=CO[C@@H](O[C@@H]2O[C@H](CO)[C@@H](O)[C@H](O)[C@H]2O)[C@H]2[C@@H]1C=C[C@]2(O)CO [Monotropein] | 0 | 0
41 | COc1ccc(-c2oc3c(CC=C(C)C)c(O[C@@H]4O[C@H](CO)[C@@H](O)[C@H](O)[C@H]4O)cc(O)c3c(=O)c2O[C@@H]2O[C@@H](C)[C@H](O)[C@@H](O[C@@H]3O[C@H](CO)[C@@H](O)[C@H](O)[C@H]3O)[C@H]2O)cc1 [Epimedin A1] | 6 | 5
42 | COc1cc2c(cc1O)-c1c(OC)c(O)cc3c1[C@H](C2)NCC3 [Laetanine] | 0 | 0
43 | C[C@@H](O)[C@H]1C(=O)N2C(C(=O)O)=C(S[C@@H]3CN[C@H](C(=O)N(C)C)C3)[C@H](C)[C@H]12.O.O.O [Meropenem (trihydrate)] | 12 | 9
44 | CC(C)=CCC[C@](C)(O)[C@@H]1CC=C(C)CC1 [Levomenol] | 37 | 50
45 | NCC(=O)N1CCC[C@H]1C(=O)O [H‐Gly‐Pro‐OH] (H-Gly-Pro-OH) | 8 | 4
46 | Cn1cc(C(N)=O)ccc1=O [Nudifloramide] | 0 | 0
47 | C=CCCN1C[C@@H]2C[C@H](C1)c1cccc(=O)n1C2 [Rhombifoline] | 0 | 0
